# Test results as given in patent US20060106028A1, “Polycyclic aromatics and derivatives thereof and processes for their preparation” (priority 2004, published 2006).
# How the values were obtained:
# Experiment in all cases: In vitro cytotoxic activity, 36 tumor cell lines panel
# Assay type in all cases: cell-based
# 1121L (Lung) = conditions: 96 hours
# Description: (§1) Culture conditions and activity evaluations of Compound 1 against 36 cancer cell lines were done as described below. Results were expressed as the concentration of drug which inhibits 50% of the cell growth (IC50, calculated using the formula: [Ti/C]×100=−50).
# (§2) The compound was dissolved at 10 mM in DMSO. Dilution in vehicle to concentrations of 30, 10, 3, 1 and 0.3 μM were prepared immediately before assays. Depending on the cell line's growth characteristics, 4000-10000 cells were plated in two 96-wells pates (day 0) and incubated for 16 hours. The following day, propidium iodide was added to one of the two plates. Test compound was added to the second plate, as well as vehicle control, and cells further incubated for 96 hours. The compound was tested at each concentration and in triplicates. The equivalent cell number was determined after adding propidium iodide by measuring the signal by fluorescence (Ti for test article, C for control).
# 1138L (Uterus) = conditions: 96 hours
# Description: as §1, §2
# 1619L (Ovarian) = conditions: 96 hours
# Description: as §1, §2
# 1657L (Pancreas) = conditions: 96 hours
# Description: as §1, §2
# 1781L (Renal) = conditions: 96 hours
# Description: as §1, §2
# 22RV1 (Prostate) = conditions: Homo sapiens, 96 hours
# Description: as §1, §2
# 251L (Gastric) = conditions: 96 hours
# Description: as §1, §2
# 276L (Melanoma) = conditions: 96 hours
# Description: as §1, §2
# 289L (Lung) = conditions: 96 hours
# Description: as §1, §2
# 393NL (Renal) = conditions: 96 hours
# Description: as §1, §2
# 401NL (Mammary) = conditions: 96 hours
# Description: as §1, §2
# 486L (Renal) = conditions: 96 hours
# Description: as §1, §2
# 498NL (CNS) = conditions: 96 hours
# Description: as §1, §2
# 514L (Melanoma) = conditions: 96 hours
# Description: as §1, §2
# 520L (Melanoma) = conditions: 96 hours
# Description: as §1, §2
# 526L (Lung) = conditions: 96 hours
# Description: as §1, §2
# 529L (Lung) = conditions: 96 hours
# Description: as §1, §2
# 536L (Head & Neck) = conditions: 96 hours
# Description: as §1, §2
# 629L (Lung) = conditions: 96 hours
# Description: as §1, §2
# 899L (Ovarian) = conditions: 96 hours
# Description: as §1, §2
# 944L (Renal) = conditions: 96 hours
# Description: as §1, §2
# DU145 (Prostate) = conditions: Homo sapiens, DU-145, 96 hours
# Description: as §1, §2
# H460 (Lung) = conditions: Homo sapiens, NCI-H460, 96 hours
# Description: as §1, §2
# HCT116 (Colon) = conditions: Homo sapiens, HCT-116, 96 hours
# Description: as §1, §2
# HT29 (Colon) = conditions: Homo sapiens, HT-29, 96 hours
# Description: as §1, §2
# LNCAP (Prostate) = conditions: Homo sapiens, 96 hours
# Description: as §1, §2
# MCF7 (Mammary) = conditions: Homo sapiens, 96 hours
# Description: as §1, §2
# OVCAR3 (Ovarian) = conditions: Homo sapiens, OVCAR-3, 96 hours
# Description: as §1, §2
# PANC1 (Pancreas) = conditions: Homo sapiens, PANC-1, 96 hours
# Description: as §1, §2
# PC3M (Prostate) = conditions: Homo sapiens, PC-3M, 96 hours
# Description: as §1, §2
# SF268 (CNS) = conditions: Homo sapiens, SF-268, 96 hours
# Description: as §1, §2
smiles,measurement,setting,value
CCC(C)c1cc2c(=O)c3ccc4c(OC)c5c(=O)c6c(O)ccc(O)c6c(=O)c5c(O)c4c3c(=O)c2c(=O)n1CC(=O)N1CC(C(=O)O)NC(=O)C1C (stereo not shown) [Compound 1],IC50,1121L (Lung),0.63 µM
same,IC50,1138L (Uterus),< 0.41 µM
same,IC50,1619L (Ovarian),19.6 µM
same,IC50,1657L (Pancreas),20 µM
same,IC50,1781L (Renal),7.54 µM
same,IC50,22RV1 (Prostate),1.65 µM
same,IC50,251L (Gastric),0.72 µM
same,IC50,276L (Melanoma),8.26 µM
same,IC50,289L (Lung),5.04 µM
same,IC50,393NL (Renal),9.08 µM
same,IC50,401NL (Mammary),< 0.41 µM
same,IC50,486L (Renal),20.7 µM
same,IC50,498NL (CNS),3.7 µM
same,IC50,514L (Melanoma),10.7 µM
same,IC50,520L (Melanoma),7.25 µM
same,IC50,526L (Lung),3.09 µM
same,IC50,529L (Lung),2.2 µM
same,IC50,536L (Head & Neck),22.5 µM
same,IC50,629L (Lung),11.9 µM
same,IC50,899L (Ovarian),34.9 µM
same,IC50,944L (Renal),14.9 µM
same,IC50,DU145 (Prostate),< 0.41 µM
same,IC50,H460 (Lung),6.08 µM
same,IC50,HCT116 (Colon),8.24 µM
same,IC50,HT29 (Colon),5.77 µM
same,IC50,LNCAP (Prostate),0.72 µM
same,IC50,MCF7 (Mammary),4.37 µM
same,IC50,OVCAR3 (Ovarian),26.2 µM
same,IC50,PANC1 (Pancreas),14.4 µM
same,IC50,PC3M (Prostate),0.91 µM
same,IC50,SF268 (CNS),1.52 µM
